From patent US5952382A, “Adamantyl-substituted retinoids and pharmaceutical/cosmetic compositions comprised thereof” (Centre International De Recherches Dermatologiques Galderma, priority 1995, dated 1999)
Read-outs that look alike come from different tables or passages of the source.

Legend:
[1] = system: embryonic teratocarcinoma F9 cells; assay: Test of differentiation of embryonic teratocarcinoma F9 cells, antagonism of an agonist retinoid (secretion of the activator of plasminogen, morphology); assay type: cell-based, mice; conditions: inhibition by 50% of effect of agonist compound A (10 nM) on secretion of the activator of plasminogen, 3 days incubation, read-out: Antagonist against compound A (10 nM) Test of differentiation of F9 cells IC50
[2] = system: embryonic teratocarcinoma F9 cells; conditions: prior art; cited from earlier work

| Molecule | IC50 ([1]; Mus musculus, F9, 72 h) [nM] | further results |
| --- | --- | --- |
| 4-[7-(1-adamantyl)-6-carbonylpentyloxy-2-naphthyl]benzoic acid [Example 20] |  | IC50 [1]: 100 nM |
| COCCOCOc1cc2ccc(-c3ccc(C(=O)O)cc3)cc2cc1C12CC3CC(CC(C3)C1)C2 [Example 3, 4-[7-(1-adamantyl)-6-methoxyethoxymethoxy-2-naphthyl]benzoic acid] | 2 |  |
| CC1=C(/C=C/C(C)=C/C=C/C(C)=C/C(=O)O)C(C)(C)CCC1 [retinoic acid] |  | induction of differentiation of embryonic teratocarcinoma cells (F9) in mice [2]: capable of inducing differentiation |
| COCCCCCCOc1cc2ccc(-c3ccc(C(=O)O)cc3)cc2cc1C12CC3CC(CC(C3)C1)C2 [Example 39, 4-[7-(1-adamantyl)-6-methoxyhexyloxy-2-naphthyl]benzoic acid] | 450 |  |
| O=C(O)c1ccc(-c2ccc3cc(C(=O)OCc4ccccc4)c(C45CC6CC(CC(C6)C4)C5)cc3c2)cc1 [Example 6, 4-[7-(1-adamantyl)-6-benzyloxycarbonyl-2-naphthyl]benzoic acid] | 500 |  |
| O=C(O)c1ccc(-c2ccc3cc(OCc4ccccc4)c(C45CC6CC(CC(C6)C4)C5)cc3c2)cc1O [Example 1, 2-hydroxy-4-[7-(1-adamantyl)-6-benzyloxy-2-naphthyl]benzoic acid] | 5 |  |
| O=C(O)c1ccc(-c2ccc3cc(OCCCCCCCCO)c(C45CC6CC(CC(C6)C4)C5)cc3c2)cc1 [Example 14, 4-[7-(1-adamantyl)-6-hydroxyoctyloxy-2-naphthyl]benzoic acid] | 250 |  |
| O=C(O)c1ccc(-c2ccc3cc(OCc4ccccc4)c(C45CC6CC(CC(C6)C4)C5)cc3c2)cc1 [Example 5, 4-[7-(1-adamantyl)-6-benzyloxy-2-naphthyl]benzoic acid] | 180 |  |
